The results in this text go back to paper PMC8171062, “Crystallographic fragment screening-based study of a novel FAD-dependent oxidoreductase from Chaetomium thermophilum” (Acta Crystallographica. Section D, Structural Biology, 2021).

Assay in all cases: X-ray crystal structure, […] A, soaking
Common to all, as to assay type: binding

Assay [1] deals with T1, CtFDO (CtFDOdegl) (Thermochaetoides thermophila, UniProt G0SAW6).
T1 construct: gene CTHT_0048040; secreted from Aspergillus oryzae, no tag mentioned; signal peptide (21), next 20 N-terminal and 8 C-terminal residues absent; 595 residues by LC-MS/MS; endoglycosidase F1 deglycosylated; about 68 kDa; monomer
T1 sequence (G0SAW6 entry or part of it): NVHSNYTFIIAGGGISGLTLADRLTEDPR
T1 sequence (G0SAW6 entry or part of it): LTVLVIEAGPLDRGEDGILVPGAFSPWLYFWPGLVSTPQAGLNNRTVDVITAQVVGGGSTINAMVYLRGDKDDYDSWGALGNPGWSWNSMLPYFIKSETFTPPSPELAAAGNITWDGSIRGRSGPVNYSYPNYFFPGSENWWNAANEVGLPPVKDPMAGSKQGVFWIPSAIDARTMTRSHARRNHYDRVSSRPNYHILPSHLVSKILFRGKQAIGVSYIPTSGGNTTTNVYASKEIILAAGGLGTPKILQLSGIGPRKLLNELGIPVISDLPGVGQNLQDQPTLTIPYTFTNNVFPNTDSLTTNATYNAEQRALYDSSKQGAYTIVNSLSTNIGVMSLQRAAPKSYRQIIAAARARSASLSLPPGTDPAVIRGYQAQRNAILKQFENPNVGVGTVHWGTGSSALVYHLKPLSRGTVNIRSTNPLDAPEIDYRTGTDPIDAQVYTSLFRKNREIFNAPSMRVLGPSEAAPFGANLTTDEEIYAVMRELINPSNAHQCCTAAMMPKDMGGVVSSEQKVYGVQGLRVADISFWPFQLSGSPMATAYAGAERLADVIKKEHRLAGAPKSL
Particulars: 20 mM MgCl2; two molecules per chain, subsites S1 and S3; occupancy 0.7-0.8; formic acid in catalytic site.

The target in assay [2] is T1, CtFDO (CtFDOdegl). Particulars: crystals at pH 5.5; catalytic site; occupancy 1.0; formic acid in S1.
Assay [3] deals with T1, CtFDO (CtFDOdegl). The note with it: crystals at pH 5.5; thiophene in subsite S2, aliphatic moiety in catalytic site; occupancy 0.9; formic acid in S1.

Regarding `O=[N+]([O-])c1ccc(O)c(O)c1` [4NC, 4-nitrocatechol], the “X-ray crystal structure, 1.26 A, soaking” value at CtFDO (CtFDOdegl) [1] is reported as “both CtFDOdegl chains bind two molecules of 4NC”. Take `COC(=O)c1ccc(CN)cc1` [MAMB, methyl-4-(aminomethyl)benzoate]: at CtFDO (CtFDOdegl) [2], the “X-ray crystal structure, 2.22 A, soaking” value was “CtFDOdegl binds one MAMB molecule in the CS”.

On to `C[C@H](NC(=O)CCC(=O)c1cccs1)c1cccnc1` [PESB, 4-oxo-N-[(1S)-1-(pyridin-3-yl)ethyl]-4-(thiophen-2-yl)butanamide], for which the “X-ray crystal structure, 1.60 A, soaking” value at CtFDO (CtFDOdegl) [3] is “each protein chain binds one PESB molecule”.
